Results: patent publication US20070197509A1, “Compositions and methods for modulating gated ion channels” (PainCeptor Pharma Corporation, priority 2005, published 2007)
Entries after “also recorded” stand apart in the source; their conditions may differ.

What was measured:
formalin-induced pain = test: Formalin test, model of acute tonic pain; format: in vivo; conditions: rat
Method: Male Sprague-Dawley rats are housed together in groups of three animals under standard conditions with unrestricted access to food and water. All experiments are conducted according to the ethical guidelines for investigations of experimental pain in conscious animals (Zimmerman, 1983)
Assessment of formalin-induced flinching behavior in normal, uninjured rats (body weight 150-180 g) was made with the use of an Automated Nociception Analyser (University of California, San Diego, USA). Briefly, this involved placing a small C-shaped metal band (10 mm wide×27 mm long) on the hindpaw of the rat to be tested. The rats (four rats were included in each testing session) were then placed in a cylindrical plexiglass observation chamber (diameter 30.5 cm and height 15 cm) for 20 min for adaptation purposes prior to being administered drug or vehicle according to the experimental paradigm being followed. […] Rats were then returned to their separate observation chambers, each of which were in turn situated upon an enclosed detection device consisting of two electromagnetic coils designed to produce an electromagnetic field in which movement of the metal band could be detected. […] A sampling interval of 1 min was used and on the basis of the resulting response patterns 5 phases of nociceptive behaviour were identified and scored: first phase (P1; 0-5 min), interphase (Int; 6-15 min), second phase (P2; […]), phase 2A (P2A; 16-40 min) and phase 2B (P2B; 41-60 min).
Nociceptive behavior was also determined manually every 5 min by measuring the amount of time spent in each of four behavioral categories: 0, treatment of the injected hindpaw is indistinguishable from that of the contralateral paw; 1, the injected paw has little or no weight placed on it; 2, the injected paw is elevated and is not in contact with any surface; 3, the injected paw is licked, bitten, or shaken. A weighted nociceptive score, ranging from 0 to 3 was calculated by multiplying the time spent in each category by the category weight, summing these products, and dividing by the total time for each 5 min block of time. […]

hASIC3 = biological target: T1, hASIC3 (Homo sapiens, UniProt Q9UHC3); test: Whole-cell patch clamp of acid-evoked currents in CHO cells transfected with hASIC3; format: cell-based; set-up: expressed in transfected cells
T1 sequence (Q9UHC3 1-531): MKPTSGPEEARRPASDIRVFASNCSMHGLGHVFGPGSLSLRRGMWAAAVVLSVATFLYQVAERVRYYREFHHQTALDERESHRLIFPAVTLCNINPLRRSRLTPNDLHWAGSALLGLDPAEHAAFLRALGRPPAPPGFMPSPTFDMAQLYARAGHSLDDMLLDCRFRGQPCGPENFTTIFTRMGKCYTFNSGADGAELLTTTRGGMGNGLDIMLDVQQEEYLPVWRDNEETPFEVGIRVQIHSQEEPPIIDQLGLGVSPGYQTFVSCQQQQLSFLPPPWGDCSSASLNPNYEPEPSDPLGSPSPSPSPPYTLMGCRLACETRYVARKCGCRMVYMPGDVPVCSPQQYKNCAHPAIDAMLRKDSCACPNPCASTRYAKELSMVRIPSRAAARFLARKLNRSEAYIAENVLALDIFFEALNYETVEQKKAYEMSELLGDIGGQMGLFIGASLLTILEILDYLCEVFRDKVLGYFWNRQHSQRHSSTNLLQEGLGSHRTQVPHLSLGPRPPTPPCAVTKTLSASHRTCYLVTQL
Method: All experiments are performed at room temperature (20-25° C.) in voltage clamp using conventional whole cell patch clamp methods (Neher, E., et al. (1978) Pfluegers Arch 375:219-228).
Coverslips with the cells are transferred to a 15 μl experimental chamber mounted on the stage of an inverted microscope (IMT-2, Olympus) supplied with Nomarski optics. Cells are continuously superfused with extracellular saline at a rate of 2.5 ml/min. After giga-seal formation, the whole cell configuration is attained by suction. The cells are held at a holding voltage of −60 mV and at the start of each experiment the current is continuously measured for 45 s to ensure a stable baseline. […] Current amplitudes are measured at the peak of the responses, and effect of the compounds is calculated as the amplitude at compound equilibrium divided by the amplitude of the current evoked by the pulse just before the compound was included. […]
FIG. 3 compares the selectivity of Compound R for human ASIC1a versus human ASIC3, both stably transfected in CHO cells. […] FIG. 3C compares the dose-response relationship of Compound R on hASIC1a and hASIC3 [determined by measuring the area under the curve of the response (total charge transfer) and normalized to the control response].

Compound | formalin-induced pain, flinching / total pain score (FIG. 5) (formalin-induced pain; i.p. 30 min before formalin, Automated Nociception Analyser, phase 2, n=6) | effect on acid evoked hASIC3 current amplitude (FIG. 3B) (hASIC3; 30 μM, CHO cells) | Biological Data (IC50 uM) h3 (PC) (hASIC3; patch clamp (PC), Table A) | ED50 (formalin-induced pain; licking and biting episodes in phase IIa of the formalin test (FIG. 7), read-out: ED50 (dose where the pain score is reduced by half)) | formalin-induced pain behavior (FIGS. 6A, 6B) (formalin-induced pain; manual scoring, overall pain behaviour and licking/biting, n=6)
COc1ccc(C(=O)CN2CCN(c3cc(C)nc4ccccc34)CC2)cc1 [Compound A, 1-(4-methoxy-phenyl)-2-[4-(2-methyl-quinolin-4-yl)-piperazin-1-yl]-ethanone] | able to reduce the total pain score behavior; also recorded: dose-dependent reduction of the pain intensity | – | – | – | –
Cc1cc(OC2CCN(Cc3ccccc3)CC2)c2ccccc2n1 [Compound R, 4-(1-benzyl-piperidin-4-yloxy)-2-methyl-quinoline] | – | failed to reduce the amplitude of the current; also recorded: failed to inhibit | inactive | ~50 mg/kg | dose-dependent effect; also recorded: dose-dependent reduction of the pain behavior
